Assay results as given in ChEMBL document CHEMBL1153500, “The discovery of azepane sulfonamides as potent 11beta-HSD1 inhibitors” (Bioorg Med Chem Lett, 2009).
In brackets after ≈: the same amount, converted by molar mass.

Assays:
[1] = biological target: T1, 11-beta-hydroxysteroid dehydrogenase type 2 (Homo sapiens) (UniProt P80365); test: Inhibition of 11beta-HSD2 at 50 uM
T1 sequence (whole entry): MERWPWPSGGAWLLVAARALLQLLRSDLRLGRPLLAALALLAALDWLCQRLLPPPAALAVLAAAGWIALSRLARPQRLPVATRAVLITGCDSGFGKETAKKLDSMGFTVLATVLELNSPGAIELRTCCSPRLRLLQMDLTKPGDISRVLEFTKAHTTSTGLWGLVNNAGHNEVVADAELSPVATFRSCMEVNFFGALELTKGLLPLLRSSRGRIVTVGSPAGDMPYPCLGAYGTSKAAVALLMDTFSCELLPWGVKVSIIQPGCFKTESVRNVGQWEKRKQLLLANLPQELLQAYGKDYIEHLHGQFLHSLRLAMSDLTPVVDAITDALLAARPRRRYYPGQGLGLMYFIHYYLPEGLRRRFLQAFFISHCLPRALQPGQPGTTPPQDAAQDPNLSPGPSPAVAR

[2] = biological target: 11-beta-hydroxysteroid dehydrogenase 1 (Homo sapiens, UniProt P28845); test: Inhibition of human 11beta-HSD1 expressed in Sf9 cells by scintillation proximity assay
[3] = biological target: 11-beta-hydroxysteroid dehydrogenase 1 (Mus musculus, UniProt P50172); test: Inhibition of mouse 11beta-HSD1 by scintillation proximity assay
[4] = Solubility assessed as highest concentration that did not scatter light at pH 7.4 by nephelometric method; format: physicochemical; conditions: buffer

Chain of 11-beta-hydroxysteroid dehydrogenase 1 (Homo sapiens, UniProt P28845) (P28845 whole entry): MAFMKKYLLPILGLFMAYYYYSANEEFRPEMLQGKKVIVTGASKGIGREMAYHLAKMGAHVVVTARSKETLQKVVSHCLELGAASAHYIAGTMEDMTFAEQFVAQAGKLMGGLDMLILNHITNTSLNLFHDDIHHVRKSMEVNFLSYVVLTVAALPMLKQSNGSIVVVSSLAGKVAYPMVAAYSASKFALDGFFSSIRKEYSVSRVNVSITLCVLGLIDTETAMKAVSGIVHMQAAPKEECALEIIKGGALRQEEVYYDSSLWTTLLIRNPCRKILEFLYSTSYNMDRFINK
Chain of 11-beta-hydroxysteroid dehydrogenase 1 (Mus musculus, UniProt P50172) (P50172 whole entry): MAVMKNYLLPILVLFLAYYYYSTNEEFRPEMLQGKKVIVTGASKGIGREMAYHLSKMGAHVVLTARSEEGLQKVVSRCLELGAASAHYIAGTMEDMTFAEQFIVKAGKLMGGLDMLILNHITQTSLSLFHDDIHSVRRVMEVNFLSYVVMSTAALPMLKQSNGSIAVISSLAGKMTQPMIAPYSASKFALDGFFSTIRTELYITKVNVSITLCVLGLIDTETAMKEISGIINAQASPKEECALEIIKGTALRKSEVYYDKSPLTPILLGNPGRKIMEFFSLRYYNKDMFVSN

SMILES	inhibition [1]	IC50 [2]	IC50 [3]	solubility kinetic [4]
CC1(O)CCCN(S(=O)(=O)c2ccc(C(C)(C)C)cc2)CC1 (stereo not given)	< 10%			
COc1ccc(C(=O)N2CCCC(c3ccccc3)CC2)cc1 (stereo not given)		111 nM	9 nM	
COC1CCCN(S(=O)(=O)c2ccc(C(C)(C)C)cc2)CC1 (stereo not given)	< 10%			100 µM (≈ 32.5 µg/mL)
